Test results taken from ChEMBL document CHEMBL1133402, “Irreversible inhibition of type I dehydroquinase by substrates for type II dehydroquinase” (Bioorg Med Chem Lett, 2000).
Activity calls are given as the source filed them. The rule behind the calls is not given here.

How the values were obtained:
[1] = biological target: T1, 3-dehydroquinate dehydratase (Escherichia coli K-12) (UniProt P05194); assay: Tested for inhibitory activity against type I dehydroquinase; active
T1 sequence (whole entry): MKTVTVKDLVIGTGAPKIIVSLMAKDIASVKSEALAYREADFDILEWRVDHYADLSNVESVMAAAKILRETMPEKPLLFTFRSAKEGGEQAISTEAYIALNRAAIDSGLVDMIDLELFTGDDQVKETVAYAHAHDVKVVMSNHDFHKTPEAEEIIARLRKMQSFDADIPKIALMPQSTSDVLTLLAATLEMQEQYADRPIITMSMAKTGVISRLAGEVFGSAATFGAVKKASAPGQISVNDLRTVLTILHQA

[2] = biological target: T1, 3-dehydroquinate dehydratase (Escherichia coli K-12); assay: kcat/Km value was determined
[3] = biological target: T2, 3-dehydroquinate dehydratase (Escherichia coli K-12, UniProt P05194); assay: Tested for the binding affinity against dehydroquinase
T2 sequence (P05194 whole entry): T1 sequence (whole entry)

[4] = biological target: T1, 3-dehydroquinate dehydratase (Escherichia coli K-12); assay: Tested for percent inactivation against dehydroquinase after 24 hr at 10 mM

Row | Activity [1] | k cat/Km [2] | Ki [3] | Inactivation [4] | Compound
1 | Active |  |  |  | O=C(O)C1=C(Br)C(=O)[C@@H](O)[C@H](O)C1
2 | Active | 86000 M⁻¹ s⁻¹ | 0.08 mM | 45% | O=C1C(O)C(O)CC(O)(C(=O)O)C1F (centres undefined)
3 | Active | 367000 M⁻¹ s⁻¹ | 3.7 mM | 70% | O=C1C(O)C(O)CC(O)(C(=O)O)C1Br (centres undefined)
